Results from paper PMC7944402, “Resin-acid derivatives bind to multiple sites on the voltage-sensor domain of the Shaker potassium channel” (The Journal of General Physiology, 2021).

Legend:
[1] = molecular target: T1, Shaker KV channel R362Q (Drosophila melanogaster, UniProt P08510, DEL6-46/R362Q); conditions: Fig. 1 E; ref Ottosson et al., 2017; Silverå Ejneby et al., 2018; cited from earlier work
T1 construct: expressed in transfected cells; host or cells: Xenopus laevis oocytes (RNA injection)
T1 sequence (P08510 other isoform, or with tags, fused parts or gaps DEL6-46/R362Q): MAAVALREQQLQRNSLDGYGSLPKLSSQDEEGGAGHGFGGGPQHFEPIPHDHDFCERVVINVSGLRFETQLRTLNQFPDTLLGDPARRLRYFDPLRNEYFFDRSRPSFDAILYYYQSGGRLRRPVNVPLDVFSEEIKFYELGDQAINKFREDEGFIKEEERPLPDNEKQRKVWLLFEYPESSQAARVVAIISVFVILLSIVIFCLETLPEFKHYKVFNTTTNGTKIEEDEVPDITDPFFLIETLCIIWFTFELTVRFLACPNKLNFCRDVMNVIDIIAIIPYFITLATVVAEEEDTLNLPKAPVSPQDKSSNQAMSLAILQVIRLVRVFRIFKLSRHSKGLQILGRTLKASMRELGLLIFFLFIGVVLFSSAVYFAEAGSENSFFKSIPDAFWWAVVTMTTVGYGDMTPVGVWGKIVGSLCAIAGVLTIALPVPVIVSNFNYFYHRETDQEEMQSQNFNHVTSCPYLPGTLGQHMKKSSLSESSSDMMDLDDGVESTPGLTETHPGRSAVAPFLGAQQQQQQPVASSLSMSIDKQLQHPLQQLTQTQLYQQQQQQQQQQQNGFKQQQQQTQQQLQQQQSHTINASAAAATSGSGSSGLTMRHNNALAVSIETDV

[2] = molecular target: T2, Shaker KV channel M356R/A359R/R362Q (Drosophila melanogaster, UniProt P08510, A359R/DEL6-46/M356R/R362Q); experiment: Two-electrode voltage clamp in Xenopus oocytes: 2R motif/R362Q; format: cell-based; conditions: 100 μM, pH 7.4, M356R/A359R/R362Q
T2 construct: expressed in transfected cells; host or cells: Xenopus laevis oocytes (RNA injection)
T2 sequence (P08510 other isoform, or with tags, fused parts or gaps DEL6-46/M356R/A359R/R362Q): as the sequence (P08510 other isoform, or with tags, fused parts or gaps DEL6-46/R362Q) above, with M315R, A318R counted along it
Excerpt: (§1) The Shaker H4 channel (GenBank accession no. NM_167595.3; [Kamb et al., 1987]), with removed N-type inactivation due to a Δ6-46 deletion (ShH4IR, in Bluescript II KS(+) plasmid; [Hoshi et al., 1990]), is referred to as the WT Shaker KV channel. Addition of two positively charged arginines (M356R/A359R) at the extracellular top of the voltage sensor increases the effect of charged lipophilic compounds ([Ottosson et al., 2014], [2015], [2017]). […] However, for the resin-acid derivatives studied in the present investigation, R362 reduced the effect. Therefore, we specifically refer to the two added arginines just outside S4 (M356R/A359R) as the 2R motif. Mutations were introduced with site-directed mutagenesis and verified with sequencing as described previously ([Börjesson et al., 2010]). RNA injection and oocyte handling were performed as before ([Börjesson et al., 2010]; [Ottosson et al., 2015]). All animal experiments were approved by the Linköping’s local Animal Care and Use Committee.
(§2) Electrophysiological experiments were made 1–6 d after RNA injection. K^+ currents were measured with the two-electrode voltage-clamp technique (GeneClamp 500B amplifier; Axon Instruments) as described previously ([Ottosson et al., 2015]; [Silverå Ejneby et al., 2018]). The amplifier’s leak compensation was used, and the currents were low-pass filtered at 5 kHz. The control solution contained (in mM) 88 NaCl, 1 KCl, 15 HEPES, 0.4 CaCl2, and 0.8 MgCl2, and pH was set with NaOH. All experiments were made at room temperature (20°C–23°C). The holding potential was set to −80 mV (or −100 mV if the mutant was not fully closed at −80 mV).
Stock solutions were stored at −20°C and diluted in control solution just before experiments. The test solution was added to the oocyte bath manually with a syringe. […] To make sure all Wu50 molecules were negatively charged, the pH of the control solution was set to 9.0 before the experiments. This pH change had only small effects on channel kinetics and the G(V) relation.
(§3) The conductance, G(V), was calculated as G(V)=I/(V−VK), (1) where I is the steady-state current measured at the end of each test-voltage sweep (100 ms after onset; Clampfit 10.5; Molecular Devices), V is the absolute membrane voltage, and VK is the reversal potential for K^+ ions (set to −80 mV). […] The resin-acid–induced G(V) shift was calculated as V1/2 (compound) − V1/2 (control). The relative change in GMAX was calculated as GMAX (compound) / GMAX (control). The concentration dependence for the G(V) shifts was calculated as ΔV= ΔVMAX/(1 +EC50/c), (3) where ΔV is the voltage shift, ΔVMAX is the voltage shift at saturating concentration, c is the concentration of the tested compound, and EC50 is the concentration at which half-maximum response occurs.

[3] = system: Shaker KV channel binding sites (S3/S4, S4/pore, residual); experiment: Additive model of site contributions to the G(V) shift (least squares fit); set-up: species or system Drosophila melanogaster
Excerpt: We also considered a reduced dataset of five mutants for Wu50 to make the comparison between the two compounds equitable (Table S1).
The G(V) shift for each mutant was expressed as a sum of contribution from the various sites: ΔVmodel=ΔVS3/S4+ΔVS4/pore+ΔVResidual, (4) where ΔVS3/S4 is the G(V) shift due to compound binding to the S3/S4 site, ΔVS4/pore is the G(V) shift due to compound binding to the S4/pore site, and ΔVResidual is the G(V) shift due to compound binding to other sites, including the top-VSD site.
Following the assumptions based on observations made using MD simulations, ΔVS3/S4 was set to 0 if the 2R motif was missing (i.e., in the WT channel), ΔVS4/pore could adopt one of four values depending on the type of mutation (R362/W454 = WT configuration, R362Q, W454A, or R362Q/W454A), and ΔVResidual was assumed to be the same for all mutants.
The model further assumed that there is a residual effect that can be due to binding to the VSD-top site or to any other unidentified site and that the contributions due to binding to the S3/S4 site and the S4/pore site depend upon mutations at this site.

[4] = molecular target: T3, Shaker KV channel with the 2R motif (M356R/A359R) (Drosophila melanogaster, UniProt P08510, A359R/DEL6-46/M356R); experiment: Two-electrode voltage clamp in Xenopus oocytes: 2R motif channel; format: cell-based
T3 construct: expressed in transfected cells; host or cells: Xenopus laevis oocytes (RNA injection)
T3 sequence (P08510 other isoform, or with tags, fused parts or gaps DEL6-46/M356R/A359R): as the sequence (P08510 other isoform, or with tags, fused parts or gaps DEL6-46/R362Q) above, with M315R, A318R, Q321R counted along it
Excerpt: (§4) The Shaker H4 channel (GenBank accession no. NM_167595.3; [Kamb et al., 1987]), with removed N-type inactivation due to a Δ6-46 deletion (ShH4IR, in Bluescript II KS(+) plasmid; [Hoshi et al., 1990]), is referred to as the WT Shaker KV channel. […] Therefore, we specifically refer to the two added arginines just outside S4 (M356R/A359R) as the 2R motif. Mutations were introduced with site-directed mutagenesis and verified with sequencing as described previously ([Börjesson et al., 2010]). RNA injection and oocyte handling were performed as before ([Börjesson et al., 2010]; [Ottosson et al., 2015]). All animal experiments were approved by the Linköping’s local Animal Care and Use Committee.
as §2
(§5) Stock solutions were stored at −20°C and diluted in control solution just before experiments. The test solution was added to the oocyte bath manually with a syringe. […] To make sure all Wu50 molecules were negatively charged, the pH of the control solution was set to 9.0 before the experiments.
(§6) The conductance, G(V), was calculated as G(V)=I/(V−VK), (1) where I is the steady-state current measured at the end of each test-voltage sweep (100 ms after onset; Clampfit 10.5; Molecular Devices), V is the absolute membrane voltage, and VK is the reversal potential for K^+ ions (set to −80 mV). The conductance was fitted with a Boltzmann equation (GraphPad Prism 5; GraphPad Software, Inc.) GK(V)=GMAX/{1+exp[(V½−V)/s]}, (2) where GMAX is the amplitude (maximal conductance) of the curve, V is the absolute membrane voltage, V1/2 is the midpoint, and s is the slope. The resin-acid–induced G(V) shift was calculated as V1/2 (compound) − V1/2 (control). The relative change in GMAX was calculated as GMAX (compound) / GMAX (control). The concentration dependence for the G(V) shifts was calculated as ΔV= ΔVMAX/(1 +EC50/c), (3) where ΔV is the voltage shift, ΔVMAX is the voltage shift at saturating concentration, c is the concentration of the tested compound, and EC50 is the concentration at which half-maximum response occurs.

[5] = molecular target: T4, Shaker KV channel W454A (Drosophila melanogaster, UniProt P08510, DEL6-46/W454A); experiment: Two-electrode voltage clamp in Xenopus oocytes: W454A; format: cell-based; conditions: 100 μM, pH 7.4, W454A
T4 construct: expressed in transfected cells; host or cells: Xenopus laevis oocytes (RNA injection)
T4 sequence (P08510 other isoform, or with tags, fused parts or gaps DEL6-46/W454A): as the sequence (P08510 other isoform, or with tags, fused parts or gaps DEL6-46/R362Q) above, with Q321R, W413A counted along it
Excerpt: as §1
(§7) Electrophysiological experiments were made 1–6 d after RNA injection. K^+ currents were measured with the two-electrode voltage-clamp technique (GeneClamp 500B amplifier; Axon Instruments) as described previously ([Ottosson et al., 2015]; [Silverå Ejneby et al., 2018]). […]
as §3

[6] = molecular target: T5, Shaker KV channel R362Q/R365Q/W454A/F280I (Drosophila melanogaster, UniProt P08510, DEL6-46/F280I/R362Q/R365Q/W454A); experiment: Two-electrode voltage clamp in Xenopus oocytes: R362Q/R365Q/W454A/F280I; format: cell-based; conditions: 100 μM, pH 7.4, R362Q/R365Q/W454A/F280I
T5 construct: expressed in transfected cells; host or cells: Xenopus laevis oocytes (RNA injection)
T5 sequence (P08510 other isoform, or with tags, fused parts or gaps DEL6-46/F280I/R362Q/R365Q/W454A): as the sequence (P08510 other isoform, or with tags, fused parts or gaps DEL6-46/R362Q) above, with F239I, R324Q, W413A counted along it
Excerpt: as §1, with “Mutations were introduced with site-directed mutagenesis and verified with sequencing as described previously ([Börjesson et al., 2010]). RNA injection and oocyte handling were performed as before ([Börjesson et al., 2010]; [Ottosson et al., 2015]). All animal experiments were approved by the Linköping’s local Animal Care and Use Committee.” left out
as §7
The conductance, G(V), was calculated as G(V)=I/(V−VK), (1) where I is the steady-state current measured at the end of each test-voltage sweep (100 ms after onset; Clampfit 10.5; Molecular Devices), V is the absolute membrane voltage, and VK is the reversal potential for K^+ ions (set to −80 mV). […] The resin-acid–induced G(V) shift was calculated as V1/2 (compound) − V1/2 (control). The relative change in GMAX was calculated as GMAX (compound) / GMAX (control). […]

[7] = molecular target: T1, Shaker KV channel R362Q; experiment: Two-electrode voltage clamp in Xenopus oocytes: R362Q; format: cell-based; conditions: 100 μM, pH 7.4, R362Q
Excerpt: as §1, §7, §3

[8] = molecular target: T6, Shaker KV channel R362Q/R365Q (Drosophila melanogaster, UniProt P08510, DEL6-46/R362Q/R365Q); experiment: Two-electrode voltage clamp in Xenopus oocytes: R362Q/R365Q; format: cell-based; conditions: 100 μM, pH 7.4, R362Q/R365Q
T6 construct: expressed in transfected cells; host or cells: Xenopus laevis oocytes (RNA injection)
T6 sequence (P08510 other isoform, or with tags, fused parts or gaps DEL6-46/R362Q/R365Q): as the sequence (P08510 other isoform, or with tags, fused parts or gaps DEL6-46/R362Q) above, with R324Q counted along it
Excerpt: as §1, §7, §3

[9] = molecular target: T7, Shaker KV channel R362Q/W454A/F416A (Drosophila melanogaster, UniProt P08510, DEL6-46/F416A/R362Q/W454A); experiment: Two-electrode voltage clamp in Xenopus oocytes: R362Q/W454A/F416A; format: cell-based; conditions: 100 μM, pH 7.4, R362Q/W454A/F416A
T7 construct: expressed in transfected cells; host or cells: Xenopus laevis oocytes (RNA injection)
T7 sequence (P08510 other isoform, or with tags, fused parts or gaps DEL6-46/R362Q/F416A/W454A): as the sequence (P08510 other isoform, or with tags, fused parts or gaps DEL6-46/R362Q) above, with F375A, W413A counted along it
Excerpt: as §1, §7, §3

[10] = molecular target: T8, WT Shaker KV channel (ShH4IR) (Drosophila melanogaster, UniProt P08510, DEL6-46); experiment: Two-electrode voltage clamp of Shaker KV channels expressed in Xenopus laevis oocytes: WT; format: cell-based; conditions: for EC50: WT, pH 7.4, concentration-response (Eq. 3), read-out: EC50 of the G(V) shift (apparent affinity)
T8 construct: expressed in transfected cells; host or cells: Xenopus laevis oocytes (RNA injection)
T8 sequence (P08510 other isoform, or with tags, fused parts or gaps DEL6-46): as the sequence (P08510 other isoform, or with tags, fused parts or gaps DEL6-46/R362Q) above, with Q321R counted along it
Excerpt: as §4, §2, §5, §6

CC/C=C\C/C=C\C/C=C\C/C=C\C/C=C\C/C=C\CCC(=O)O [DHA, docosahexaenoic acid]
Change of the G(V)-shifting effect on neutralization of R362 (R362Q versus WT) [1]: no noticeable change

CC(C)c1ccc2c(c1)CC[C@H]1[C@](C)(C(=O)O)CCC[C@]21C [DHAA, dehydroabietic acid]
Change of the G(V)-shifting effect on neutralization of R362 (R362Q versus WT) [1]: increase in effect

CO/N=C1\C[C@H]2[C@](C)(C(=O)O)CCC[C@]2(C)c2cc(Br)c(C(C)C)cc21 [Wu32]
Change of the G(V)-shifting effect on neutralization of R362 (R362Q versus WT) [1]: increase in effect

CC(C)c1ccc2c(c1)CC[C@H]1[C@](C)(COS(=O)(=O)O)CCC[C@]21C [Wu161]
GMAX (rel.) [2]: 1.19 rel.
ΔVS3/S4 (contribution of the S3/S4 site in the presence of the 2R mutations) ([3]; five mutants): −17 mV
ΔVS4/pore, R362Q configuration ([3]; five mutants): 0 to −6 mV
ΔVS4/pore, WT S4/pore site ([3]; five mutants): −7 to −13 mV
ΔVS4/pore, W454A configuration ([3]; no clear difference between five-mutants and eight-mutants datasets): +2 to −6 mV
GMAX (rel.) ([4]; 100 μM, pH 7.4, M356R/A359R (=2R)): 1.20 rel.
EC50 ([4]; 2R motif, pH 7.4, concentration-response (Eq. 3), read-out: EC50 of the G(V) shift (apparent affinity)): 36.4 ± 9 µM
GMAX (rel.) [5]: 0.86 rel.
GMAX (rel.) [6]: 0.64 rel.
GMAX (rel.) [7]: 1.05 rel.
GMAX (rel.) [8]: 0.99 rel.
GMAX (rel.) [9]: 0.47 rel.
GMAX (rel.) ([10]; 100 μM, pH 7.4, WT): 1.03 rel.
EC50 [10]: 43.7 ± 6.3 µM

C[C@@]1(COS(=O)(=O)O)CCC[C@]2(C)c3cc(Cl)c(Cl)c(Cl)c3CC[C@@H]12 [Wu181]
Increase of the maximum G(V) shift by the 2R motif ([4]; 2R motif versus WT, Wu50 pH 9.0, Wu161 and Wu181 pH 7.4): 590%
ΔVMAX (maximum G(V) shift) ([4]; 2R motif, pH 7.4, concentration-response (Eq. 3)): −53.6 ± 4.0 mV
EC50 [10]: 1.6 ± 0.6 µM
